Biological target: recombinant IL4I1 (Homo sapiens (Human), UniProt Q96RQ9)
Assay: IL4I1 Enzymatic Assay (Amplex Red/HRP coupled fluorescence detection of H2O2)
Format: biochemical
Details: 240 min; recombinant IL4I1, four-hour pre-incubation with compound
Outline: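 Ten-point, 1:3 compound titrations were fitted by four-parameter sigmoidal regression to give EC50. Resorufin fluorescence (544/590 nm) from Amplex Red/HRP-coupled H2O2 detection was read 120 min after adding 1 mM each aromatic amino acid to 1 nM IL4I1, following a 4 h compound pre-incubation in pH 7.0 Hepes buffer.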

Chain of recombinant IL4I1 (Q96RQ9 22-567): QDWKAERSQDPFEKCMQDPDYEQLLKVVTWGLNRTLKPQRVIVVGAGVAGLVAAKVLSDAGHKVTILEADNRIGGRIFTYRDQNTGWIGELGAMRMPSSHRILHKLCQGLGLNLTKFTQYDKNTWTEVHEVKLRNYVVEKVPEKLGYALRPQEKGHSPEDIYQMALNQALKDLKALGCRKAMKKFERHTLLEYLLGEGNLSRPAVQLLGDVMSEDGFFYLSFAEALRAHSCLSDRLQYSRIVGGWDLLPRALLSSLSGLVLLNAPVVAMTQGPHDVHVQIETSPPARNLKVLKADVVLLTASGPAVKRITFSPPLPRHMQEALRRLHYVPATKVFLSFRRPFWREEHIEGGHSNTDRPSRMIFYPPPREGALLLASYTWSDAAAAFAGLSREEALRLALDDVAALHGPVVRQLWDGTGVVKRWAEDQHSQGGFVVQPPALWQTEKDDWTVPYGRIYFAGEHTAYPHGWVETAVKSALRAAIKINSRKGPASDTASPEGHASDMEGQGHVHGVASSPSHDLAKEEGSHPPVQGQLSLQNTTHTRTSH

Row | SMILES | EC50
1 | O=C1C(=O)N(C2CC3CC2C3)CCN1Cc1ccc(-c2ccccc2)nn1 (stereo not shown) [Example 183, 1-(bicyclo[2.1.1]hexan-2-yl)-4-((6-phenylpyridazin-3-yl)methyl)piperazine-2,3-dione] | 24 nM
2 | N#Cc1ccccc1-c1nnc(CN2CCN(C34CC(C3)C4)C(=O)C2=O)s1 [Example 436, 2-(5-((4-(bicyclo[1.1.1]pentan-1-yl)-2,3-dioxopiperazin-1-yl)methyl)-1,3,4-thiadiazol-2-yl)benzonitrile] | 20 nM
3 | O=c1c(=O)n(C2(CF)CC2)ccn1Cc1ccc(-n2nccn2)cn1 [Example 216, 1-((5-(2H-1,2,3-triazol-2-yl)pyridin-2-yl)methyl)-4-(1-(fluoromethyl)cyclopropyl)-1,4-dihydropyrazine-2,3-dione] | 60 nM
4 | O=C1C(=O)N(c2ccccn2)CCN1Cc1ccc(-c2ccccc2)nn1 [Example 433, 1-((6-phenylpyridazin-3-yl)methyl)-4-(pyridin-2-yl)piperazine-2,3-dione] | 37 nM
5 | O=C1C(=O)N(C2CCCC2)CCN1Cc1ccc(-c2ccccc2)nc1 [Example 97, 1-cyclopentyl-4-((6-phenylpyridin-3-yl)methyl)piperazine-2,3-dione] | 5 nM
6 | O=C1C(=O)N(C23CCC(CC2=O)C3)CCN1Cc1nnc(-c2ccccc2)s1 (stereo not shown) [Example 301, 1-(2-oxobicyclo[2.2.1]heptan-1-yl)-4-((5-phenyl-1,3,4-thiadiazol-2-yl)methyl)piperazine-2,3-dione] | 67 nM
7 | CCCOc1ccc(CN2CCN(C3CCCC3)C(=O)C2=O)nn1 [Example 339, 1-cyclopentyl-4-((6-propoxypyridazin-3-yl)methyl)piperazine-2,3-dione] | 42 nM
8 | O=c1c(=O)n([C@H]2C[C@H]3C[C@H]3C2)ccn1Cc1ncc(-c2nccs2)cc1F [Example 371, 1-((cis)-bicyclo[3.1.0]hexan-3-yl)-4-((3-fluoro-5-(thiazol-2-yl)pyridin-2-yl)methyl)-1,4-dihydropyrazine-2,3-dione] | 42 nM
9 | O=c1c(=O)n(C23CC(C2)C3)ccn1Cc1ccc(-c2ccccc2F)nn1 [Example 193, 1-(bicyclo[1.1.1]pentan-1-yl)-4-((6-(2-fluorophenyl)pyridazin-3-yl)methyl)-1,4-dihydropyrazine-2,3-dione] | 8 nM
10 | N#CC1CCC(n2ccn(Cc3nnc(-c4ccccc4)s3)c(=O)c2=O)C1 (stereo not shown) [Example 338, 3-(2,3-dioxo-4-((5-phenyl-1,3,4-thiadiazol-2-yl)methyl)-3,4-dihydropyrazin-1(2H)-yl)cyclopentane-1-carbonitrile] | 12 nM
11 | O=C1C(=O)N(C2CCCC2)CCN1Cc1cnn(-c2ccccc2)c1 [Example 273, 1-cyclopentyl-4-((1-phenyl-1H-pyrazol-4-yl)methyl)piperazine-2,3-dione] | 19 nM
12 | O=C1C(=O)N(C2C[C@@H]3C[C@@H]3C2)CCN1Cc1ccc(-c2ccccc2)nn1 (stereo partly drawn) [Example 284, 1-((cis)-bicyclo[3.1.0]hexan-3-yl)-4-((6-phenylpyridazin-3-yl)methyl)piperazine-2,3-dione] | 8 nM
13 | N#CC1(n2ccn(Cc3ccc(-n4nccn4)nn3)c(=O)c2=O)CC1 [Example 333, 1-(4-((6-(2H-1,2,3-triazol-2-yl)pyridazin-3-yl)methyl)-2,3-dioxo-3,4-dihydropyrazin-1(2H)-yl)cyclopropane-1-carbonitrile] | 94 nM
14 | O=C1C(=O)N(C2CCC2)CCN1Cc1ccc(-c2ccccc2)cn1 [Example 26, 1-cyclobutyl-4-((5-phenylpyridin-2-yl)methyl)piperazine-2,3-dione] | 6 nM
15 | O=C1C(=O)N(C23CC(C2)C3)CCN1Cc1ccc(-c2ccccc2)nc1 [Example 122, 1-(bicyclo[1.1.1]pentan-1-yl)-4-((6-phenylpyridin-3-yl)methyl)piperazine-2,3-dione] | 6 nM
16 | O=C1C(=O)N([C@H]2C[C@H]3C[C@H]3C2)CCN1Cc1ccc(-c2ccccc2F)nn1 [Example 62, 1-((cis)-bicyclo[3.1.0]hexan-3-yl)-4-((6-(2-fluorophenyl)pyridazin-3-yl)methyl)piperazine-2,3-dione] | 4 nM

From patent US20240246937A1 (MERCK SHARP & DOHME LLC, priority 2021, published 2024)
